Data reported in patent US3950346A, “Novel process for producing 2-ketoethylbenzomorphan derivatives and salts thereof” (Sumitomo Chemical Company, Limited, priority 1972, dated 1976).
Like-named read-outs stand apart in the source and are kept apart here.

Key:
[1] = Physical dependency test: abstinence syndrome (body weight decrease on the day after drug withdrawal following 4 weeks of administration); assay type: in vivo, rats (male, Wistar strain); design: key to Abstinence syndrome: +++: severe decrease (about 5% decrease); ++: moderate decrease; +: mild decrease; -: no decrease; conditions: for Abstinence syndrome: 20 mg/kg/day, subcutaneously twice a day for 4 weeks, body weight decrease on next day after withdrawal, male Wistar rats; for addiction in long term animal tests / physical dependency: result in words; for physical dependency: orally or subcutaneously to rats everyday for 4 weeks
Protocol: Known 6,7-benzomorphan derivatives such as 2'-hydroxy-2,5,9-trimethyl-6,7-benzomorphan [cf. […] On account of this addiction liability, these analgesics are severely restricted in a therapeutic use.
Note: Groups of male rats of Wistar strain (body weight, 150 g at the beginning of the test), each group consisting of 20 male rats, were subcutaneously given the test compound twice a day for 4 consecutive weeks. On the next day after drug withdrawal, the body weight was measured. The symbols have the following meanings: +++, severe decrease (about 5% decrease); ++, moderate decrease; +, mild decrease; -, no decrease.

[2] = Subcutaneous writhing test (antagonism of the syndrome produced by intraperitoneal 0.6% aqueous acetic acid); assay type: in vivo; conditions: mice, 20 minutes before acetic acid, Litchfield-Wilcoxon's method
Protocol: […]. Note: The test was based on the specific antagonism of the test compound to the typical syndrome produced by intraperitoneal injection of 0.6% aqueous acetic acid. The syndrome was characterized by intermittent contractions of the abdomen, twisting and turning of the trunk and extension of the hind legs. A group of 5 mice was used for each dose level. The test compound was administered subcutaneously 20 minutes before the injection of acetic acid. […] The ED50 value was calculated according to the Litchfield-Wilcoxon's method.

[3] = known, cf. U.S. Pat. No. 3,138,603; result in words; cited from earlier work
[4] = known, cf. U.S. Pat. No. 3,138,603; result in words; cited from earlier work; remark: listed apart in the source
[5] = Mus musculus, sc, read-out: ED50

| Compound | Abstinence syndrome [1] | addiction in long term animal tests [1] | physical dependency [1] | ED50 [2] | ED50 [2, 5] | analgesic activity [3] | addiction liability [4] |
| --- | --- | --- | --- | --- | --- | --- | --- |
| 2'-Hydroxy-2-(β-ethylcarbonylethyl)-5,9-dimethyl-6,7-benzomorphan | - | do not show any addiction | did not produce any physical dependency | 7.0 mg/kg |  |  |  |
| CCOC(=O)CCN1CCC2(C)c3cc(O)ccc3CC1C2C (stereo not drawn) [2'-Hydroxy-2-(β-ethoxycarbonylethyl)-5,9-dimethyl-6,7-benzomorphan] | - | do not show any addiction | did not produce any physical dependency |  | 16.1 mg/kg |  |  |
| CC1C2Cc3ccc(O)cc3C1(C)CCN2C (stereo not drawn) [2'-hydroxy-2,5,9-trimethyl-6,7-benzomorphan] | ++ |  |  |  |  | potent analgesic activity | show an addiction liability |
| CC(C)=CCN1CCC2(C)c3cc(O)ccc3CC1C2C (stereo not drawn) [Pentazocine, 2'-hydroxy-2-(3"-methyl-2"-butenyl)-5,9-dimethyl-6,7-benzomorphan, reference compound] |  |  |  |  | 17.5 mg/kg |  |  |
